The values that follow come from PubChem BioAssay (NCI).

Where “and” joins values, the source holds several entries; their conditions need not be identical. Equal entries are not always repeated.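 Step 1: Grow cells in 96-well plates. Step 2: Expose to compound for 48 hours at 5 concentrations. Step 3: Interpolate endpoints linearly; if unreached, use highest concentration. GI50: concentration for 50% inhibition of growth. TGI: total growth inhibition.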

Test systems include NCI-H23 lung; A498 renal; LOX IMVI melanoma; NCI/ADR-RES ovarian; M14 melanoma; OVCAR-3 ovarian; CAKI-1 renal; MALME-3M melanoma; MOLT-4 leukemia; SNB-19 CNS.
What all share (experiment): DTP human tumour cell line panel, 48 h

A word on the GI50: it is the concentration giving 50% growth inhibition. One may read the TGI as the concentration giving total growth inhibition. Higher therefore signals less potent growth arrest.

Turning to `CCOc1ccc(Nc2nc(-c3ccc4c(c3)NC(=O)CO4)cs2)cc1`, the GI50 with NCI-H23 lung is 6.96 µM; with A498 renal, 13.6 µM; in the assay with LOX IMVI melanoma, 5.33 µM; with NCI/ADR-RES ovarian, 4.12 µM; in the assay with M14 melanoma it was 4.33 µM; in the assay on OVCAR-3 ovarian, 20.2 µM. Besides, the GI50 in the assay on CAKI-1 renal was 19 µM; with MALME-3M melanoma it was 4.71 µM; in the assay on MOLT-4 leukemia, 2.01 µM; with SNB-19 CNS it was 18.9 µM. In addition, the TGI in the assay with NCI-H23 lung was > 100 µM; in the assay on A498 renal, 55.4 µM; in the assay with LOX IMVI melanoma, > 100 µM; in the assay with NCI/ADR-RES ovarian, > 100 µM; in the assay on M14 melanoma it was 17.4 µM; in the assay on OVCAR-3 ovarian it was > 100 µM. Moreover, the TGI in the assay on CAKI-1 renal was 90.7 µM; in the assay with MALME-3M melanoma, 20.4 µM; with MOLT-4 leukemia, 5.28 µM; in the assay on SNB-19 CNS, > 100 µM.
With `COc1ccc(C2=C(c3ccc(OC)c(OC)c3)C(=O)OC2)cc1`, the GI50 in the assay with NCI-H23 lung was 0.023 µM; in the assay with A498 renal, 0.0803 µM; in the assay with LOX IMVI melanoma, < 0.01 µM; in the assay with NCI/ADR-RES ovarian, < 0.01 µM; with M14 melanoma it was < 0.01 µM; with OVCAR-3 ovarian it was 0.177 µM. Also, the GI50 with MOLT-4 leukemia is < 0.0208 µM; in the assay on SNB-19 CNS it was 0.263 µM. Also, the concentration for total growth inhibition (TGI) in the assay with NCI-H23 lung was > 100 µM; in the assay on A498 renal, 42.3 µM; in the assay with LOX IMVI melanoma, > 39.1 µM; with NCI/ADR-RES ovarian, 1.12 µM; in the assay on M14 melanoma it was > 36.4 µM; in the assay on OVCAR-3 ovarian, 0.389 µM. Besides, the TGI with CAKI-1 renal was 4.89 µM; with MALME-3M melanoma, > 81 µM; with SNB-19 CNS, > 100 µM.
For the molecule `Cn1nc(-c2ccccc2)nc1[N+](=O)[O-]`, the concentration for total growth inhibition (TGI) in the assay with NCI-H23 lung, in the assay on A498 renal, in the assay on LOX IMVI melanoma, with NCI/ADR-RES ovarian, in the assay on M14 melanoma and in the assay on OVCAR-3 ovarian was > 10 µM throughout. Further, the concentration for total growth inhibition (TGI) in the assay on CAKI-1 renal, in the assay on MALME-3M melanoma, with MOLT-4 leukemia and in the assay on SNB-19 CNS was > 10 µM each time.
In the case of `Nc1cc(-c2cccc(OC(F)(F)F)c2)nc2ccc(N3CCCC3)cc12`, the 50% growth inhibitory concentration (GI50) is 0.0716 µM and 0.0803 µM and 0.0609 µM in the assay with NCI-H23 lung; 0.0271 µM and 0.023 µM and 0.0266 µM in the assay on A498 renal; 0.0528 µM and 0.0485 µM and 0.046 µM in the assay on LOX IMVI melanoma; 0.0362 µM and 0.0363 µM and 0.0324 µM in the assay on NCI/ADR-RES ovarian; 0.0285 µM and 0.0215 µM and 0.0168 µM in the assay on M14 melanoma; 0.0318 µM and 0.0288 µM and 0.0273 µM in the assay on OVCAR-3 ovarian. The concentration for 50% growth inhibition (GI50) with CAKI-1 renal was 0.0515 µM and 0.0489 µM and 0.0417 µM; in the assay with MALME-3M melanoma, 0.265 µM and 0.299 µM and 0.246 µM; with MOLT-4 leukemia it was 0.0447 µM and 0.0422 µM and 0.0405 µM; in the assay with SNB-19 CNS, 0.0458 µM and 0.0431 µM and 0.0437 µM. In addition, the TGI in the assay with NCI-H23 lung is 43.1 µM and > 100 µM; in the assay with A498 renal, 0.193 µM and 0.0936 µM and 0.257 µM; in the assay on NCI/ADR-RES ovarian, 20 µM and > 100 µM; with M14 melanoma it was 1.6 µM and 1.7 µM; in the assay on CAKI-1 renal, > 100 µM; in the assay with SNB-19 CNS it was 26.9 µM and > 100 µM.
`CC1(C)CC(n2cnc(-c3ccc(F)cc3)c2-c2ccnc(N)n2)CC(C)(C)N1`: the GI50 is > 25 µM in the assay on NCI-H23 lung; > 25 µM with A498 renal; > 19.7 µM in the assay on LOX IMVI melanoma; > 25 µM in the assay with NCI/ADR-RES ovarian; > 25 µM in the assay with M14 melanoma; > 25 µM with OVCAR-3 ovarian. The GI50 was > 25 µM with CAKI-1 renal, > 25 µM in the assay with MALME-3M melanoma, 17.4 µM with MOLT-4 leukemia and > 25 µM in the assay with SNB-19 CNS. Further, the TGI with NCI-H23 lung, in the assay on A498 renal, in the assay with LOX IMVI melanoma, in the assay on NCI/ADR-RES ovarian, in the assay on M14 melanoma and in the assay on OVCAR-3 ovarian was > 25 µM in each case. In addition, the TGI in the assay on CAKI-1 renal, in the assay with MALME-3M melanoma, in the assay with MOLT-4 leukemia and in the assay with SNB-19 CNS was > 25 µM throughout.
With `c1ccc2c(c1)-c1ccccc1C2N1CC2CCC(CC2)C1`, the total growth inhibition concentration (TGI) with NCI-H23 lung was determined as 47.5 µM; in the assay on A498 renal, 40.1 µM; with LOX IMVI melanoma it was 40.5 µM; in the assay with NCI/ADR-RES ovarian, 39.5 µM; with M14 melanoma, 75.4 µM; in the assay on OVCAR-3 ovarian, 40.5 µM. Further, the TGI was > 100 µM with CAKI-1 renal, 27.6 µM in the assay with MALME-3M melanoma, 28.2 µM with MOLT-4 leukemia and 92.4 µM in the assay on SNB-19 CNS.
Consider `Cc1cc2cc3c(C)cc(=O)oc3c(C)c2o1`, for which the total growth inhibition concentration (TGI) in the assay on NCI-H23 lung, with A498 renal, in the assay with LOX IMVI melanoma, in the assay on NCI/ADR-RES ovarian, with M14 melanoma and in the assay with OVCAR-3 ovarian was > 100 µM each time. For the same molecule, the TGI in the assay on CAKI-1 renal, in the assay with MALME-3M melanoma, in the assay with MOLT-4 leukemia and in the assay on SNB-19 CNS was > 100 µM each time.
Turning to `Cc1cc(-c2nnc(N)nc2-c2ccc(F)cc2)cc(Cl)n1`, the GI50 was 54.3 µM with NCI-H23 lung; 49 µM in the assay on A498 renal; > 100 µM in the assay on LOX IMVI melanoma; 57.4 µM in the assay on NCI/ADR-RES ovarian; > 100 µM with M14 melanoma; > 100 µM in the assay with OVCAR-3 ovarian. In addition, the GI50 in the assay with CAKI-1 renal is 43.8 µM; in the assay with MALME-3M melanoma, > 100 µM; in the assay on MOLT-4 leukemia, 49.9 µM; in the assay on SNB-19 CNS, > 100 µM. For the same molecule, the TGI in the assay on NCI-H23 lung, in the assay on A498 renal, with LOX IMVI melanoma, in the assay with NCI/ADR-RES ovarian, with M14 melanoma and in the assay with OVCAR-3 ovarian was > 100 µM in each case. Also, the TGI with CAKI-1 renal, in the assay with MALME-3M melanoma, in the assay on MOLT-4 leukemia and with SNB-19 CNS was > 100 µM each time.
As to `C=C1C(=O)[C@@]23CC1C(O)[C@@H](OC(C)=O)[C@@H]2C1(C)C(OC(C)=O)C[C@@H](OC(C)=O)C(C)(C)[C@@H]1C[C@H]3OC(C)=O` (stereo partly drawn), the GI50 is 7.86 µM and 2.63 µg/mL in the assay on NCI-H23 lung; 16.3 µg/mL with A498 renal; 1.82 µg/mL with LOX IMVI melanoma; 16.9 µg/mL in the assay on NCI/ADR-RES ovarian; 2.33 µM and 2.68 µg/mL in the assay with M14 melanoma; > 10 µM and 3.93 µg/mL in the assay on OVCAR-3 ovarian. Also, the GI50 was 3.03 µg/mL with CAKI-1 renal; 1.57 µM and 1.72 µg/mL with MALME-3M melanoma; 1.71 µM and 1.28 µg/mL with MOLT-4 leukemia; > 10 µM and 17.2 µg/mL in the assay with SNB-19 CNS. Further, the TGI was > 10 µM and 7.68 µg/mL in the assay on NCI-H23 lung; > 10 µM and 30.6 µg/mL in the assay on A498 renal; > 10 µM and 3.31 µg/mL with LOX IMVI melanoma; > 10 µM and 37.2 µg/mL in the assay with NCI/ADR-RES ovarian; > 10 µM and 7.15 µg/mL in the assay on M14 melanoma; > 10 µM and 8.34 µg/mL in the assay with OVCAR-3 ovarian. Also, the TGI in the assay on CAKI-1 renal was > 10 µM and 8.66 µg/mL; in the assay on MALME-3M melanoma, 3.3 µM and 3.14 µg/mL; in the assay on MOLT-4 leukemia, 4.1 µM and 4.03 µg/mL; with SNB-19 CNS, > 10 µM and 31.1 µg/mL.
